{"source": "patent US20170239351A1", "about": "“Therapeutic Combinations of a BTK Inhibitor, a PI3K Inhibitor, a JAK-2 Inhibitor, a PD-1 Inhibitor, and/or a PD-L1 Inhibitor” (Acerta Pharma B.V., priority 2014, published 2017)", "key": {"[1]": {"test_system": "KPC derived mouse pancreatic cancer cells", "assay": "Orthotopic pancreatic cancer model (KPC-derived cells)", "type": "in vivo, C57BL/6 mice", "conditions": "15 mg/kg oral of each drug", "method": "Orthotopic pancreatic cancer models in mice are clinically relevant, benefit from tissue site-specific pathology, and allow for study of metastasis. Qiu and Su, Methods Mol. Biol. 2013, 980, 215-223. A cell line derived from KrasG12D; Trp53R172H; Pdx1-Cre (KPC) mice was orthotopically implanted into the head of the pancreas after 35 passages. Based on the mice background from where the cell lines were generated, 1×10^6 cells were injected in C57BL/6 mice. Throughout the experiment, animals were provided with food and water ad libitum and subjected to a 12-h dark/light cycle. Animal studies were performed in accordance with the U.S. Public Health Service “Guidelines for the Care and Use of Laboratory Animals” (IACUC). After euthanization, pancreatic tumors were dissected out, weighed and single cell suspensions were prepared for flow cytometry analysis.\nResults of the experiments are shown in FIG. 110, which illustrates tumor growth suppression in the orthotopic pancreatic cancer model. The statistical p-value (presumption against null hypothesis) is shown for each tested single active pharmaceutical ingredient and for the combination against the vehicle.\nIn this study, KrasG12D;Trp53R172H; Pdx1-Cre (KPC) derived mouse pancreatic cancer cells (10,000 cells) were injected into the pancreases of 24 female mice. After one week of expansion, drug treatment was started in mice developing pancreatic tumors.\nSingle cell suspensions from tumor samples were prepared as follows. Mouse tumor tissue was collected and stored in PBS/0.1% soybean trypsin inhibitor prior to enzymatic dissociation. […] Following surface staining, samples were acquired on a BD Fortessa and analyzed using FlowJo (Treestar) software."}, "NK cells": {"test_system": "NK cells", "assay": "Antibody-stimulated NK cell degranulation (CD107a), flow cytometry", "type": "cell-based, human", "conditions": "DHL-4 target cells"}}}
{"smiles": "CC#CC(=O)N1CCC[C@H]1c1nc(-c2ccc(C(=O)Nc3ccccn3)cc2)c2c(N)nccn12", "note": "[Formula (XVIII), (S)-4-(8-amino-3-(1-(but-2-ynoyl)pyrrolidin-2-yl)imidazo[1,5-a]pyrazin-1-yl)-N-(pyridin-2-yl)benzamide]", "values": [{"measurement": "immunosuppressive tumor associated myeloid cells and Tregs", "setting": "[1]", "value": "reduce immunosuppressive tumor associated myeloid cells and Tregs"}, {"measurement": "tumor volume versus vehicle", "setting": "[1]", "value": "statistically significant reductions in tumor volume"}, {"measurement": "inhibition of rituximab-stimulated NK cell degranulation", "setting": "NK cells", "value": "< 2", "unit": "%"}]}
